The structures appear in SMILES notation.

The subject of assay [1] is RIPK3. Nature of the assay: RIPK3 western blotting of KARPAS-299 xenograft cell lysates. The class given is in vivo, mouse. The settings on record: five days treatment, FIG. 13.
A further assay deals with LINE-1. Nature of the assay: Methylation level of LINE-1 after decitabine treatment. It counts as cell-based, human. The settings on record: 0.01, 0.1, 1 μM decitabine for 4 days; FIG. 3 D.
Assay [2] concerns KARPAS-299 xenograft mouse model. As to the kind of experiment: Gene expression changes in KARPAS-299 xenografts. The class given is in vivo. The settings on record: treated for five days, FIG. 12. The protocol:
KARPAS-299 xenograft mouse model was prepared by injecting KARPAS-299 cells. The mice bearing the KARPAS-299 xenografts were treated with decitabine (DAC) and/or tolinapant for five days. The tumor cells were collected and analyzed for gene expression changes (FIG. 12).

Assay [3] deals with RIPK3. Nature of the assay: RIPK3 expression by western blot after decitabine treatment, Karpas-299 cells. The class given is cell-based, human. The settings on record: 0.01, 0.1, 1 μM decitabine for 4 days, FIG. 2. (In general: A western blot detects proteins with antibodies after separation by electrophoresis.)
Assay [4] deals with RIPK3. Nature of the assay: RIPK3 expression by western blot after decitabine treatment, CT26 cells. It counts as cell-based, mouse. The settings on record: 0.01, 0.1, 1 μM decitabine for 2 days, FIG. 2. The protocol:
Two types of mouse cell lines (BW5147.G.1.4, a T cell lymphoma from DSMZ (Braunschweig, Germany) and CT26) were treated with 0.01, 0.1, 1 μM or no decitabine (DAC) for 2 days.

A further assay deals with RIPK3 gene promoter. As to the kind of experiment: Methylation status of RIPK3 gene by pyrosequencing (EpigenDX). It counts as cell-based, human. The settings on record: H9, Karpas-299, Sup-M2, Sup-T1 cell lines; 0.01, 0.1, 1 μM decitabine for 4 days; FIG. 3 B and C. The protocol:
The DNA of human H9, Karpas-299, Sup-M2 (from DSMZ), and Sup-T1 (from ECACC) cell lines were sequenced to identify methylation status of the RIPK3 gene by pyrosequencing (EpigenDX). […] These cell lines were treated with 0.01, 0.1, and 1 μM decitabine (DAC) for 4 days, and DNA of the cells were sequenced to identify methylation status of the RIPK3 gene by pyrosequencing (EpigenDX).

The next assay relates to DNMT1. As to the kind of experiment: Western blotting of BW5147.G.1.4 lysates, DNMT1. It counts as cell-based, mouse. The settings on record: 48 hours, as the concentration of decitabine increased, FIG. 8. The protocol:
After 48 hours, the cell was lysated and interferon signaling and PD markers were analyzed by Western blotting, as shown in FIG. 8.

The subject of another assay is H9 cells. As to the kind of experiment: IFNγ release, electrochemiluminescence immunoassay (Meso Scale Discovery). The class given is cell-based, human. The settings on record: decitabine alone 0.001-10 μM for 48 hours; FIG. 4. The protocol:
Human T-cell lymphoma (H9) cell line was treated with decitabine (DAC) (0.001, 0.003, 0.01, 0.03, 0.1, 0.3, 1, 3 and 10 μM) for 48 hours, and the release of IFNγ was measured an electrochemiluminescence immunoassay (Meso Scale Discovery). […] Thus, the treatment by decitabine will potentially result in improved response rate to the tolinapant treatment.

A further assay has as its system CT26 cells. Nature of the assay: Lytic cell death by real-time microscopy (IncuCyte) in CT26 control and RIPK3 re-expressed CT26 cells. The class given is cell-based, mouse. The settings on record: 1 μM tolinapant; RIPK3 re-expressed CT26 cells versus CT26 control cells; FIG. 1B. The protocol: CRISPR activation (CRISPRa) was used to re-express RIPK3 in the CT26 line (from ATCC) (FIG. 1A). […] The lytic cell death upon treatment of tolinapant was measured for the CT26 control cells and the RIPK3 re-expressed CT26 cells, by real-time microscopy (IncuCyte) assays (FIG. 1B).

Another assay relates to clAP1. As to the kind of experiment: Western blotting of BW5147.G.1.4 lysates, clAP1. The class given is cell-based, mouse. The settings on record: 48 hours, when tolinapant was added to decitabine, FIG. 8. The protocol: After 48 hours, the cell was lysated and interferon signaling and PD markers were analyzed by Western blotting, as shown in FIG. 8. From the western blot, it was confirmed that the expression of DNMT1 was reduced as the concentration of decitabine increased, and the expression of clAP1 was suppressed when tolinapant was added.

For `Nc1ncn([C@H]2C[C@H](O)[C@@H](CO)O2)c(=O)n1` [decitabine, 5-aza-2′-deoxycytidine], the “RIPK3 re-expression by western blotting” value with RIPK3 [1] is given as “re-expression of RIPK3 was also confirmed”. For the same compound, the “methylation of LINE-1” value in the assay on LINE-1 is given as “demethylation of LINE-1”. Also, the “gene expression changes in tumor cells” value in assay [2] was “upregulation of interferons, and other cytokines/chemokines and cancer testis antigens”. The RIPK3 expression entry in the assay with RIPK3 [3] and with RIPK3 [4] was “RIPK3 expression was detected” in each case. For the same compound, the “methylation of RIPK3 gene promoter” value with RIPK3 gene promoter is “demethylation of RIPK3 gene promoter”. In addition, the “expression of DNMT1” value in the assay on DNMT1 is “reduced”. Moreover, the “IFNγ released from H9 cells” value in the assay with H9 cells is listed as “increased”.

For `C[C@@H]1CN(CC(=O)N2CC(C)(C)c3nc(CO)c(Cc4ccc(F)cc4)cc32)[C@@H](CN2CCOC[C@H]2C)CN1` [tolinapant, 1-(6-(4-fluorobenzyl)-5-(hydroxymethyl)-3,3-dimethyl-2,3-dihydro-1H-pyrrolo[3,2-b]pyridin-1-yl)-2-((2R,5R)-5-methyl-2-(((R)-3-methylmorpholino)methyl)piperazin-1-yl)ethan-1-one], the “lytic cell death upon treatment of tolinapant” value in the assay on CT26 cells was “higher lytic cell death”. For the same compound, the “expression of clAP1” value in the assay on clAP1 is on record as “suppressed”.

The values above are taken from patent US20240082286A1, “COMBINATION THERAPIES FOR TREATMENT OF T-CELL LYMPHOMAS” (Otsuka Pharmaceutical Co., Ltd., priority 2022, published 2024).
